From PMC12583704 (Signal Transduction and Targeted Therapy, 2025)
Where two headings read alike, the source gives them in different places.

Experiments:
TNBC MDA-MB-231 cells = tested on: TNBC MDA-MB-231 cells; design: method as in HQP1351 SJ0003 Protocol; details: ref HQP1351 SJ0003 Protocol; cited from earlier work
Sup-B15 = tested on: Sup-B15; design: method as in HQP1351 SJ0003 Protocol; details: ref HQP1351 SJ0003 Protocol; cited from earlier work
[1] = design: method as in HQP1351 SJ0003 Protocol; details: 1.0 mg/kg oral; ref HQP1351 SJ0003 Protocol; cited from earlier work
[2] = design: method as in HQP1351 SJ0003 Protocol; details: ref HQP1351 SJ0003 Protocol; cited from earlier work
GIST 882 cells = tested on: GIST 882 cells; design: method as in HQP1351 SJ0003 Protocol; details: imatinib-sensitive; ref HQP1351 SJ0003 Protocol; cited from earlier work
VEGFR3 = VEGFR3 (Homo sapiens, UniProt P35916); experiment: In vitro biochemical kinase assay; details: kinase activity
VEGFR3, sequence (P35916 25-1363): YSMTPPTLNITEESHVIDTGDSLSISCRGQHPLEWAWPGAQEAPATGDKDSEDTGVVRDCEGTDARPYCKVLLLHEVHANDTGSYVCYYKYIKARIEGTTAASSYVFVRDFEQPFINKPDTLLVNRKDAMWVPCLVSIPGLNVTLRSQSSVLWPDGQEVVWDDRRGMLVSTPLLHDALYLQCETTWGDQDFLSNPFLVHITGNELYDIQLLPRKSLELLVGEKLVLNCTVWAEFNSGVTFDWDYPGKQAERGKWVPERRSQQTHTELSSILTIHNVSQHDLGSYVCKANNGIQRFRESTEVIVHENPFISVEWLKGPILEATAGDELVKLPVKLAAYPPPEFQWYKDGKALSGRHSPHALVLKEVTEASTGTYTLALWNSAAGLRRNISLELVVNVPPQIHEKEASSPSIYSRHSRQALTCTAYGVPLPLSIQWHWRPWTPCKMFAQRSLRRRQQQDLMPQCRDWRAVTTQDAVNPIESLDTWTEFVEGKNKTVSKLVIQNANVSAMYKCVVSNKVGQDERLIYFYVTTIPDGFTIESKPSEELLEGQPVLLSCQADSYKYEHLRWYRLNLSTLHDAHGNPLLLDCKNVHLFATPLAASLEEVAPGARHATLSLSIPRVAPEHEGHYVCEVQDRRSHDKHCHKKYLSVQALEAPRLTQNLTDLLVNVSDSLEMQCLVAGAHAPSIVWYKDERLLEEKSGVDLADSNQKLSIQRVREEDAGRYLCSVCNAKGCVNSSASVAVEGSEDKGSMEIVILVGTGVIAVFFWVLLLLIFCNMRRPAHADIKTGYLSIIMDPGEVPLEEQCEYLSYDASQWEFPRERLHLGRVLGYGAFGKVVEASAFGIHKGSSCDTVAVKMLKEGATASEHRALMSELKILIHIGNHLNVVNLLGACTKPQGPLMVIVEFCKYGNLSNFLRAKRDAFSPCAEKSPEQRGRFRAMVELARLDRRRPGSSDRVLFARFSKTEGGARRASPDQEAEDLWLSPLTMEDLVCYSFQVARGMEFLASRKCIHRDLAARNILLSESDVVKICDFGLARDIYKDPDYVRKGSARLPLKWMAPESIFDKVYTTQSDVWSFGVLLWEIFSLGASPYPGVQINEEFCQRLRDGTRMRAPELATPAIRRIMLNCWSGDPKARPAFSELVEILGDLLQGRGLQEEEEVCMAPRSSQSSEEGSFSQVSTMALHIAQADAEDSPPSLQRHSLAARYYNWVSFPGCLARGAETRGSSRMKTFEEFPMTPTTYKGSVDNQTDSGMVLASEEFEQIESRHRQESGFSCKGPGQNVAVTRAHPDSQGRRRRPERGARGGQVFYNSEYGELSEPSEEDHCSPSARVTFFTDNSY

CYP3A4 [3] = tested on: CYP3A4; design: method as in HQP1351 SJ0003 Protocol; details: 0 - 50 μM; ref HQP1351 SJ0003 Protocol; cited from earlier work
[4] = tested on: MDA-MB-231 triple negative breast cancer xenografts; design: method as in HQP1351 SJ0003 Protocol; details: ref HQP1351 SJ0003 Protocol, cited from earlier work
[5] = design: method as in HQP1351 SJ0003 Protocol; details: granules, single intragastric administration; ref HQP1351 SJ0003 Protocol; cited from earlier work
TKI-resistant GIST = experiment: SJ-0003 interim efficacy assessment; format: in vivo, human; details: as of January 31, 2021; 28 of 36 GIST subjects with at least one efficacy assessment
Protocol: Guangzhou HealthQuest Pharma Inc. HQP1351 […]
completely recovered to normal. The no observed adverse effect level (NOAEL) was 1.0 […]
In a 28-day repeat-dose toxicity study in Beagle dogs (28 -day recovery period), red blood cells, hemoglobin, hematocrit, platelets, white blood cells, neutrophils, and fibrinogen increased in 3 mg/kg/day dose group. Total protein and globulin decreased, A/ G, fibrinogen, creatine kinase increased in the 1.5 mg/kg/day dose group. In addition, lymphocytes decreased was […]
the recovery period, all of the above changes recovered to normal. Intragastric HQP1351 3 […]
The main target organs for toxicity were stomach, intestine, thymus, spleen, lymph nodes and Peyer's patches, sternal bone marrow, lip and tongue mucosa, and toxicities were reversible to a certain extent. After 4-week drug withdrawal, all of the above symptoms of surviving animals in this group recovered to normal. The NOAEL was 1.5 mg/kg/day. […]
genotoxicity on bone marrow cells.
As of February 2021, HQP1351 has undergone a total of 9 clinical studies, including 3 Phase […]
conducted in China except for HQP1351CU101 and HQP1351XC106 which were conducted in the United States. […]
In the Phase I CML study of HQP1351 (SJ-0002), the PK of HQP1351 were assessed in a total of 65 CML patients receiving HQP1351 at dose levels of 1-60 mg every other day under fed

K562 = tested on: K562; design: method as in HQP1351 SJ0003 Protocol; details: ref HQP1351 SJ0003 Protocol; cited from earlier work
[6] = design: method as in HQP1351 SJ0003 Protocol; details: ref HQP1351 SJ0003 Protocol; cited from earlier work; remark: listed apart in the source
[7] = design: method as in HQP1351 SJ0003 Protocol; details: ref HQP1351 SJ0003 Protocol, cited from earlier work
CYP2C19 = tested on: CYP2C19; design: method as in HQP1351 SJ0003 Protocol; details: 0 - 50 μM; ref HQP1351 SJ0003 Protocol; cited from earlier work
CYP3A4 [8] = tested on: CYP3A4; design: method as in HQP1351 SJ0003 Protocol; details: ref HQP1351 SJ0003 Protocol, cited from earlier work

For Cc1ccc(C(=O)Nc2ccc(CN3CCN(C)CC3)c(C(F)(F)F)c2)cc1C#Cc1cnc2[nH]ncc2c1 [Olverembatinib, 3-[(1H-pyrazolo[3,4-b]pyridin-5-yl)ethynyl]-4-methyl-N-{4-[(4-methylpiperazin-1-yl)methyl]-3-(trifluoromethyl)phenyl]benzamide], the IC50 (TNBC MDA-MB-231 cells) is listed as 9 ± 5 nM, the IC50 (Sup-B15) is listed as 2.5 nM and the main distribution tissues [1] is listed as “lung, liver, and kidney”. The MTD [2] was 20 mg/kg, the IC50 (GIST 882 cells) was 36 ± 7 nM and the IC50 (VEGFR3) was < 0.6 nM. The “inhibitory effect on CYP3A4” value (CYP3A4 [3]) was “no significant inhibitory effect”, the “T/C (%)” value ([4]; 20 mg/kg, P<0.01) was 34.0% and the minimal effective dose [4] was 20 mg/kg. For the same compound, the “safe dose on the function of the central nervous system” value [5] was ≥ 1.5 mg/kg, the “subjects with progressive disease (PD)” value (TKI-resistant GIST) was 18 subjects and the IC50 (K562) was 0.2 nM. For the same compound, the “unchanged drug oxidized NADPH-dependently” value [6] was “Less than 20%”, the absolute bioavailability ([7]; 0.75 mg/kg) was 5.11% and the absolute bioavailability ([7]; 2.25 mg/kg) was 14.45%. For the same compound, the “accumulation of plasma exposure” value ([7]; 7 consecutive days, in rats and dogs) was “no obvious accumulation”, the t1/2 [7] was 6.62 to 9.72 h and the “inhibitory effect on CYP2C19” value (CYP2C19) was “certain inhibitory effect”. For the same compound, the “induction of mRNA expression of CYP3A4” value (CYP3A4 [8]; 0.3 and 3 μM) was “potential to induce mRNA expression” and the “induction of mRNA expression of CYP3A4” value (CYP3A4 [8]; 0.563 and 5.63 μM) was “potential to induce mRNA expression”.
